Test results: PubChem BioAssay AID588719 (Southern Research Specialized Biocontainment Screening …, 2011)

System: Vero 76 cells viability, cytotoxicity counter-screen
Test: Vero 76 cell cytotoxicity, dose response, cytotoxicity control for VEEV inhibitor project (AID 588719)

## COc1cc(/C=C/C(=O)/C=C(O)/C=C/c2ccc(O)c(OC)c2)ccc1O
  CC50: 19.9 µM
